# Experimental data taken from US7091038B2, “Ecdysone receptor-based inducible gene expression system” (RheoGene, Inc., priority 2000, dated 2006).
# Experiments:
# VP16CfEcR = assay: Transactivation of reporter gene through switch 1.7 in 3T3 cells; assay type: cell-based, Choristoneura fumiferana; settings: switch 1.7, pEcRELuc
# Protocol: Six ecdysone response elements (“EcRE”; SEQ ID NO: 55) from the hsp27 gene were placed upstream of the promoter and a luciferase gene (SEQ ID NO: 66). This switch most probably uses endogenous RXR.
# (§1) The cells were harvested and reporter activity was assayed.
# (§2) The cells were plated when they reached 50% confluency.
# (§3) Cells were harvested 24–48 hr after adding ligands. […] Twenty μl of lysate was assayed.
# GAL4RXR + VP16DmEcR = target: T1, GAL4RXR + VP16DmEcR (Drosophila melanogaster, UniProt P34021); assay: Transactivation of reporter gene through switch 1.4 in 293 cells; assay type: cell-based, Mus musculus; Drosophila melanogaster; settings: switch 1.4, pGAL4RELuc
# T1 sequence (P34021 254-878): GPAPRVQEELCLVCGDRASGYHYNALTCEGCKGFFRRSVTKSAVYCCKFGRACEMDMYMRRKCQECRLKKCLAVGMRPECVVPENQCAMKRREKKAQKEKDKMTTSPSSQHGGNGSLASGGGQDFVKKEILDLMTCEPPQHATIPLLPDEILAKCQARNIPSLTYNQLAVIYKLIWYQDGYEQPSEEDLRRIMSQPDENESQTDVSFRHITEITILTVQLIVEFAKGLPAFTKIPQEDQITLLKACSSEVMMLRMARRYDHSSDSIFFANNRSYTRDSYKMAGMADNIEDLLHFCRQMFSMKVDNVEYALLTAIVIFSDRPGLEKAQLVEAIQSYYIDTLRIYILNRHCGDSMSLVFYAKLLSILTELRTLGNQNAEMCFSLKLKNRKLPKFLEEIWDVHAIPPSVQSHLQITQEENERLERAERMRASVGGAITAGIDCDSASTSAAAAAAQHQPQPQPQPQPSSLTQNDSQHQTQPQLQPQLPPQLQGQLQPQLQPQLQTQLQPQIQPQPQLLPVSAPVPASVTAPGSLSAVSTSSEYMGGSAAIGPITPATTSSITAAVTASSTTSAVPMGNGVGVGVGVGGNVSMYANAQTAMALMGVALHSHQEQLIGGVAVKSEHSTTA
# T1 sequence (P28700 206-467 partner limits assumed): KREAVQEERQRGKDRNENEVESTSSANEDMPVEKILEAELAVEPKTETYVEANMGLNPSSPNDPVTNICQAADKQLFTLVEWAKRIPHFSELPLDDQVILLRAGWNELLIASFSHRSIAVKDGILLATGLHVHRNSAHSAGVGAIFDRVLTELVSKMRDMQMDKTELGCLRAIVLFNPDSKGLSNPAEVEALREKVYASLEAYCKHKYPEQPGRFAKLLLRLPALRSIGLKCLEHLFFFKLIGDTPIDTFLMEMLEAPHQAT
# Protocol: This construct was prepared in the same way as switch 1.3 except CfEcRCDEF was replaced with DmEcRCDEF (SEQ ID NO: 6).
# as §1
# (§4) The same procedures described for CHO were followed for 293 cells except that the cells were plated in biocoated plates to avoid clumping.
# as §3
# GAL4USP + VP16CfEcR = assay: Transactivation of reporter gene through switch 1.5 in CHO cells; assay type: cell-based, Choristoneura fumiferana; settings: switch 1.5, pGAL4RELuc
# Protocol: This construct was prepared in the same way as switch 1.3 except MmRXRDEF was replaced with CfUSPDEF (SEQ ID NO: 67).
# as §1, §3
# GAL4CfEcRVP16 = assay: Transactivation of reporter gene through switch 1.6 in CV1 cells; assay type: cell-based, Choristoneura fumiferana; settings: switch 1.6, pGAL4RELuc
# Protocol: This construct was prepared so that both the GAL4 DNABD and the VP16AD were placed on the same molecule. GAL4DNABD (SEQ ID NO: 43) and VP16AD (SEQ ID NO: 49) were fused to CfEcRDEF (SEQ ID NO: 3) at N-and C-termini respectively.
# as §1, §2
# The same procedures described for NIH3T3 cells were followed for CV1 cells
# as §3
# GAL4RXR + VP16CfEcR = assay: Transactivation of reporter gene through switch 1.3 in 293 cells; assay type: cell-based, Mus musculus; Choristoneura fumiferana; settings: switch 1.3, pGAL4RELuc
# Protocol: as §1, §4, §3
smiles,measurement,setting,value
"CCc1c(OC)cccc1C(=O)NN(C(=O)c1cc(C)cc(C)c1)C(C)(C)C [N-(2-ethyl-3-methoxybenzoyl)-N′-(3,5-dimethylbenzoyl)-N′-t-butylhydrazine]","Mean Fold Activation Through N-(2-ethyl-3-methoxybenzoyl)-N′-(3,5-dimethylbenzoyl)-N′-t-butylhydrazine",VP16CfEcR,1 fold
same,"Mean Fold Activation Through N-(2-ethyl-3-methoxybenzoyl)-N′-(3,5-dimethylbenzoyl)-N′-t-butylhydrazine",GAL4RXR + VP16DmEcR,3 fold
same,"Mean Fold Activation with 50 μM N-(2-ethyl-3-methoxybenzoyl)-N′-(3,5-dimethylbenzoyl)-N′-t-butylhydrazine",GAL4USP + VP16CfEcR,2 fold
same,"Mean Fold Activation Through N-(2-ethyl-3-methoxybenzoyl)-N′-(3,5-dimethylbenzoyl)-N′-t-butylhydrazine",GAL4CfEcRVP16,6 fold
same,"Mean Fold Activation Through N-(2-ethyl-3-methoxybenzoyl)-N′-(3,5-dimethylbenzoyl)-N′-t-butylhydrazine",GAL4RXR + VP16CfEcR,17 fold
